Experiments:
Format in all cases: in vivo
[1] = test system: Matricaria inodora (MATIN); assay: Pre-emergence herbicidal evaluation, mayweed
Method in brief: (§1)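 Rating done 2–4 weeks post-treatment in the greenhouse. Compound, in aqueous acetone, was sprayed onto soil surface right after sowing, at rates equivalent to about 0.0125–0.4 kg per hectare, before crop or weed emergence.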

Setaria viridis (SETVI) = assay: Pre-emergence herbicidal evaluation, green foxtail
Method in brief: as §1

[2] = test system: Echinochloa grus galli (ECHCG); assay: Post-emergence herbicidal evaluation, barnyard grass; details: rated 2 to 4 weeks after treatment
Method in brief: (§2)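 Post-emergence spray of test compound, from acetone solutions diluted in water, at about 0.03 to 0.4 kg/ha per pot, plants then kept under standard greenhouse conditions. Injury rated 2 to 4 weeks after treatment on a 0 (as untreated) to 9 (death) scale.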

Lamium purpureum (LAMPU) [3] = assay: Post-emergence herbicidal evaluation, purple deadnettle; details: rated 2 to 4 weeks after treatment
Method in brief: as §2

[4] = test system: Alopecurus myosuroides (ALOMY); assay: Pre-emergence herbicidal evaluation, black grass
Method in brief: as §1

[5] = test system: Echinochloa grus galli (ECHCG); assay: Pre-emergence herbicidal evaluation, barnyard grass
Method in brief: as §1

Hordeum vulgare (HORVW) [6] = assay: Post-emergence herbicidal evaluation, winter barley; details: rated 2 to 4 weeks after treatment
Method in brief: as §2

[7] = test system: Ambrosia artemiisifolia (AMBEL); assay: Pre-emergence herbicidal evaluation, ragweed
Method in brief: as §1

Hordeum vulgare (HORVW) [8] = assay: Pre-emergence herbicidal evaluation, winter barley
Method in brief: as §1

[9] = test system: Digitaria sanguinalis (DIGSA); assay: Post-emergence herbicidal evaluation, large crabgrass; details: rated 2 to 4 weeks after treatment
Method in brief: as §2

[10] = test system: Matricaria inodora (MATIN); assay: Post-emergence herbicidal evaluation, mayweed; details: rated 2 to 4 weeks after treatment
Method in brief: as §2

Glycine max (GLXMA) [11] = assay: Post-emergence herbicidal evaluation, soyabeans; details: rated 2 to 4 weeks after treatment
Procedure: [table] [table] […] These acetone solutions are diluted with water and the resulting formulations applied at dosage levels equivalent of about 0.03 to 0.4 kg per hectare of test compound per pot. After spraying the plants are placed on greenhouse benches and are cared for in the usual manner, commensurate with conventional greenhouse practices. From 2 to 4 weeks after treatment, the seedling plants are examined and rated according to the rating system provided above. A rating 0 indicates growth as untreated control, a rating 9 indicates death.

[12] = test system: Abutilon theophrasti (ABUTH); assay: Pre-emergence herbicidal evaluation, velvetleaf
Method in brief: as §1

Solanum nigrum (SOLNI) [13] = assay: Post-emergence herbicidal evaluation, black nightshade; details: rated 2 to 4 weeks after treatment
Method in brief: as §2

[14] = test system: Triticum aestivum (TRZAW); assay: Post-emergence herbicidal evaluation, winter wheat; details: rated 2 to 4 weeks after treatment
Method in brief: as §2

Lamium purpureum (LAMPU) [15] = assay: Pre-emergence herbicidal evaluation, purple deadnettle
Method in brief: as §1

Stellaria media (STEME) = assay: Post-emergence herbicidal evaluation, chickweed; details: rated 2 to 4 weeks after treatment
Method in brief: as §2

[16] = test system: Ipomoea hederacea (IPOHE); assay: Pre-emergence herbicidal evaluation, morning glory
Method in brief: as §1

[17] = test system: Abutilon theophrasti (ABUTH); assay: Post-emergence herbicidal evaluation, velvetleaf; details: rated 2 to 4 weeks after treatment
Method in brief: as §2

Oryza sativum (ORYSA) [18] = assay: Pre-emergence herbicidal evaluation, rice
Method in brief: as §1

Oryza sativum (ORYSA) [19] = assay: Post-emergence herbicidal evaluation, rice; details: rated 2 to 4 weeks after treatment
Method in brief: as §2

Zea mays (ZEAMX) [20] = assay: Post-emergence herbicidal evaluation, maize; details: rated 2 to 4 weeks after treatment
Method in brief: as §2

Glycine max (GLXMA) [21] = assay: Pre-emergence herbicidal evaluation, soyabeans
Method in brief: as §1

Zea mays (ZEAMX) [22] = assay: Pre-emergence herbicidal evaluation, maize
Method in brief: as §1

[23] = test system: Ipomoea hederacea (IPOHE); assay: Post-emergence herbicidal evaluation, morning glory; details: rated 2 to 4 weeks after treatment
Method in brief: as §2

Solanum nigrum (SOLNI) [24] = assay: Pre-emergence herbicidal evaluation, black nightshade
Method in brief: as §1

COc1cc(OCC(F)(F)C(F)F)nc(Oc2cc(C(F)(F)F)nn2C)c1 [Example 4, 2-(1-Methyl-3-trifluoromethylpyrazol-5-yloxy)-4-methoxy-6-(2,2,3,3-tetrafluoropropyloxy)pyridine]
MATIN rating ([1]; dose 0.013 kg/ha): 8 (8 - Approaching complete kill)
MATIN rating ([1]; dose 0.025 kg/ha): 8 (8 - Approaching complete kill)
MATIN rating ([1]; dose 0.1 kg/ha): 9 (9 - Complete kill)
MATIN rating ([1]; dose 0.4 kg/ha): 9 (9 - Complete kill)
SETVI rating (Setaria viridis (SETVI); dose 0.013 kg/ha): 5 (5 - Definite injury)
SETVI rating (Setaria viridis (SETVI); dose 0.025 kg/ha): 8 (8 - Approaching complete kill)
SETVI rating (Setaria viridis (SETVI); dose 0.1 kg/ha): 9 (9 - Complete kill)
SETVI rating (Setaria viridis (SETVI); dose 0.4 kg/ha): 9 (9 - Complete kill)
ECHCG rating ([2]; dose 0.03 kg/ha): 6 (6 - Herbicidal effect)
ECHCG rating ([2]; dose 0.1 kg/ha): 8 (8 - Approaching complete kill)
ECHCG rating ([2]; dose 0.4 kg/ha): 9 (9 - Complete kill)
LAMPU rating (Lamium purpureum (LAMPU) [3]; dose 0.03 kg/ha): 7 (7 - Good herbicidal effect)
LAMPU rating (Lamium purpureum (LAMPU) [3]; dose 0.4 kg/ha): 8 (8 - Approaching complete kill)
ALOMY rating ([4]; dose 0.025 kg/ha): 3 (3 - Moderate effect)
ALOMY rating ([4]; dose 0.1 kg/ha): 8 (8 - Approaching complete kill)
ALOMY rating ([4]; dose 0.4 kg/ha): 8 (8 - Approaching complete kill)
ECHCG rating ([5]; dose 0.013 kg/ha): 3 (3 - Moderate effect)
ECHCG rating ([5]; dose 0.025 kg/ha): 5 (5 - Definite injury)
ECHCG rating ([5]; dose 0.1 kg/ha): 8 (8 - Approaching complete kill)
ECHCG rating ([5]; dose 0.4 kg/ha): 8 (8 - Approaching complete kill)
HORVW rating (Hordeum vulgare (HORVW) [6]; dose 0.03 kg/ha): 3 (3 - Moderate effect)
HORVW rating (Hordeum vulgare (HORVW) [6]; dose 0.1 kg/ha): 3 (3 - Moderate effect)
HORVW rating (Hordeum vulgare (HORVW) [6]; dose 0.4 kg/ha): 5 (5 - Definite injury)
AMBEL rating ([7]; dose 0.013 kg/ha): 4 (4 - Injury)
AMBEL rating ([7]; dose 0.025 kg/ha): 9 (9 - Complete kill)
AMBEL rating ([7]; dose 0.1 kg/ha): 9 (9 - Complete kill)
AMBEL rating ([7]; dose 0.4 kg/ha): 9 (9 - Complete kill)
HORVW rating (Hordeum vulgare (HORVW) [8]; dose 0.013 kg/ha): 1 (1 - Trace effect)
HORVW rating (Hordeum vulgare (HORVW) [8]; dose 0.025 kg/ha): 2 (2 - Slight effect)
HORVW rating (Hordeum vulgare (HORVW) [8]; dose 0.1 kg/ha): 3 (3 - Moderate effect)
HORVW rating (Hordeum vulgare (HORVW) [8]; dose 0.4 kg/ha): 4 (4 - Injury)
DIGSA rating ([9]; dose 0.03 kg/ha): 5 (5 - Definite injury)
DIGSA rating ([9]; dose 0.1 kg/ha): 7 (7 - Good herbicidal effect)
DIGSA rating ([9]; dose 0.4 kg/ha): 8 (8 - Approaching complete kill)
MATIN rating ([10]; dose 0.03 kg/ha): 5 (5 - Definite injury)
MATIN rating ([10]; dose 0.1 kg/ha): 7 (7 - Good herbicidal effect)
MATIN rating ([10]; dose 0.4 kg/ha): 7 (7 - Good herbicidal effect)
GLXMA rating (Glycine max (GLXMA) [11]; dose 0.03 kg/ha): 5 (5 - Definite injury)
GLXMA rating (Glycine max (GLXMA) [11]; dose 0.1 kg/ha): 8 (8 - Approaching complete kill)
GLXMA rating (Glycine max (GLXMA) [11]; dose 0.4 kg/ha): 8 (8 - Approaching complete kill)
ABUTH rating ([12]; dose 0.013 kg/ha): 3 (3 - Moderate effect)
ABUTH rating ([12]; dose 0.025 kg/ha): 5 (5 - Definite injury)
ABUTH rating ([12]; dose 0.1 kg/ha): 7 (7 - Good herbicidal effect)
ABUTH rating ([12]; dose 0.4 kg/ha): 9 (9 - Complete kill)
SOLNI rating (Solanum nigrum (SOLNI) [13]; dose 0.03 kg/ha): 4 (4 - Injury)
SOLNI rating (Solanum nigrum (SOLNI) [13]; dose 0.1 kg/ha): 5 (5 - Definite injury)
SOLNI rating (Solanum nigrum (SOLNI) [13]; dose 0.4 kg/ha): 5 (5 - Definite injury)
TRZAW rating ([14]; dose 0.03 kg/ha): 2 (2 - Slight effect)
TRZAW rating ([14]; dose 0.1 kg/ha): 3 (3 - Moderate effect)
TRZAW rating ([14]; dose 0.4 kg/ha): 5 (5 - Definite injury)
LAMPU rating (Lamium purpureum (LAMPU) [15]; dose 0.013 kg/ha): 8 (8 - Approaching complete kill)
LAMPU rating (Lamium purpureum (LAMPU) [15]; dose 0.025 kg/ha): 8 (8 - Approaching complete kill)
LAMPU rating (Lamium purpureum (LAMPU) [15]; dose 0.1 kg/ha): 9 (9 - Complete kill)
LAMPU rating (Lamium purpureum (LAMPU) [15]; dose 0.4 kg/ha): 9 (9 - Complete kill)
STEME rating (Stellaria media (STEME); dose 0.03 kg/ha): 6 (6 - Herbicidal effect)
STEME rating (Stellaria media (STEME); dose 0.1 kg/ha): 6 (6 - Herbicidal effect)
STEME rating (Stellaria media (STEME); dose 0.4 kg/ha): 8 (8 - Approaching complete kill)
IPOHE rating ([16]; dose 0.013 kg/ha): 3 (3 - Moderate effect)
IPOHE rating ([16]; dose 0.025 kg/ha): 6 (6 - Herbicidal effect)
IPOHE rating ([16]; dose 0.1 kg/ha): 9 (9 - Complete kill)
IPOHE rating ([16]; dose 0.4 kg/ha): 9 (9 - Complete kill)
ABUTH rating ([17]; dose 0.03 kg/ha): 4 (4 - Injury)
ABUTH rating ([17]; dose 0.1 kg/ha): 6 (6 - Herbicidal effect)
ABUTH rating ([17]; dose 0.4 kg/ha): 6 (6 - Herbicidal effect)
ORYSA rating (Oryza sativum (ORYSA) [18]; dose 0.013 kg/ha): 1 (1 - Trace effect)
ORYSA rating (Oryza sativum (ORYSA) [18]; dose 0.025 kg/ha): 1 (1 - Trace effect)
ORYSA rating (Oryza sativum (ORYSA) [18]; dose 0.1 kg/ha): 2 (2 - Slight effect)
ORYSA rating (Oryza sativum (ORYSA) [18]; dose 0.4 kg/ha): 3 (3 - Moderate effect)
ORYSA rating (Oryza sativum (ORYSA) [19]; dose 0.03 kg/ha): 2 (2 - Slight effect)
ORYSA rating (Oryza sativum (ORYSA) [19]; dose 0.1 kg/ha): 2 (2 - Slight effect)
ORYSA rating (Oryza sativum (ORYSA) [19]; dose 0.4 kg/ha): 4 (4 - Injury)
ZEAMX rating (Zea mays (ZEAMX) [20]; dose 0.03 kg/ha): 2 (2 - Slight effect)
ZEAMX rating (Zea mays (ZEAMX) [20]; dose 0.1 kg/ha): 3 (3 - Moderate effect)
ZEAMX rating (Zea mays (ZEAMX) [20]; dose 0.4 kg/ha): 5 (5 - Definite injury)
GLXMA rating (Glycine max (GLXMA) [21]; dose 0.013 kg/ha): 1 (1 - Trace effect)
GLXMA rating (Glycine max (GLXMA) [21]; dose 0.025 kg/ha): 4 (4 - Injury)
GLXMA rating (Glycine max (GLXMA) [21]; dose 0.1 kg/ha): 6 (6 - Herbicidal effect)
GLXMA rating (Glycine max (GLXMA) [21]; dose 0.4 kg/ha): 8 (8 - Approaching complete kill)
ZEAMX rating (Zea mays (ZEAMX) [22]; dose 0.013 kg/ha): 1 (1 - Trace effect)
ZEAMX rating (Zea mays (ZEAMX) [22]; dose 0.025 kg/ha): 1 (1 - Trace effect)
ZEAMX rating (Zea mays (ZEAMX) [22]; dose 0.1 kg/ha): 3 (3 - Moderate effect)
ZEAMX rating (Zea mays (ZEAMX) [22]; dose 0.4 kg/ha): 5 (5 - Definite injury)
IPOHE rating ([23]; dose 0.03 kg/ha): 8 (8 - Approaching complete kill)
IPOHE rating ([23]; dose 0.1 kg/ha): 9 (9 - Complete kill)
IPOHE rating ([23]; dose 0.4 kg/ha): 9 (9 - Complete kill)
SOLNI rating (Solanum nigrum (SOLNI) [24]; dose 0.013 kg/ha): 6 (6 - Herbicidal effect)
SOLNI rating (Solanum nigrum (SOLNI) [24]; dose 0.025 kg/ha): 8 (8 - Approaching complete kill)
SOLNI rating (Solanum nigrum (SOLNI) [24]; dose 0.1 kg/ha): 8 (8 - Approaching complete kill)
SOLNI rating (Solanum nigrum (SOLNI) [24]; dose 0.4 kg/ha): 8 (8 - Approaching complete kill)

— patent US6852673B2, “Herbicidal pyridine compounds” (BASF Aktiengesellschaft, priority 1998, dated 2005)
